27 compounds from patent publication US9873709B2 (priority 2013, dated 2018) can be followed below.

Counter-ions that a name gives are not always drawn.

One test deals with isolated recombinant JAK2 kinase domain (Homo sapiens (Human), UniProt O60674).
isolated recombinant JAK2 kinase domain, sequence (O60674 849-1124): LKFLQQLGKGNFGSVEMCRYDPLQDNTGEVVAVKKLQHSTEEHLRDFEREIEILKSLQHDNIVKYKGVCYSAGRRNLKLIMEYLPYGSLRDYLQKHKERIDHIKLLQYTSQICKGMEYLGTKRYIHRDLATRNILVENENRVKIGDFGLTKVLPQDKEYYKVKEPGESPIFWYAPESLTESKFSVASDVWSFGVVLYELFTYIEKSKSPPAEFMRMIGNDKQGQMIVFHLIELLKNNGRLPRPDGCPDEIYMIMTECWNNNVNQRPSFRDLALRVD
Test: not given
To be noted: read-out: JAK2 Ki.
The term Ki denotes the equilibrium dissociation constant of an inhibitor or competing ligand from its target. For the compound `CN1CCC(N(C)C(=O)c2ccc(Nc3nc4c(Oc5ccccc5)cccn4n3)cc2)CC1` [Example 1-248, N-Methyl-N-(1-methyl-piperidin-4-yl)-4-(8-phenoxy-[1,2,4]triazolo[1,5-a]pyridine-2-ylamino)-benzamide], the inhibition constant Ki was found to be 22.1 nM. Turning to `CN1CCC(N(C)C(=O)c2ccc(Nc3nc4c(Oc5ccc6oc(=O)n(Cc7ccccc7)c6c5)cccn4n3)cc2)CC1` [Example 1-264, 4-([8-[(3-benzyl-2-oxo-2,3-dihydro-1,3-benzoxazol-5-yl)oxy]-[1,2,4]triazolo[1,5-a]pyridin-2-yl]amino)-N-methyl-N-(1-methylpiperidin-4-yl)benzamide], the Ki stood at 121 nM.

Still in this test, the particulars now being: read-out: JAK2 Ki; isolated recombinant JAK2 kinase domain, 25 μM ATP.
On to `COC1(c2ccccc2)CCN(c2cccn3nc(Nc4ccc(C(=O)N(C)C5CCN(C)CC5)cc4)nc23)CC1` [Example 1-5, 4-[[8-(4-methoxy-4-phenyl-1-piperidyl)-[1,2,4]triazolo[1,5-a]pyridin-2-yl]amino]-N-methyl-N-(1-methyl-4-piperidyl)benzamide; hydrochloride], for which the Ki was determined as 5.15 nM. The same measure, in the same setting: in the case of `COC1CCN(c2cccn3nc(Nc4ccc(C(=O)N(C)C5CCN(C)CC5)cc4)nc23)CC1` [Example 1-8, 4-[[8-(4-methoxy-1-piperidyl)-[1,2,4]triazolo[1,5-a]pyridin-2-yl]amino]-N-methyl-N-(1-methyl-4-piperidyl)benzamide] it was 23.1 nM. As for `CN1CCC(N(C)C(=O)c2ccc(Nc3nc4c(N5CCC(O)(c6ccc(C#N)cc6)CC5)cccn4n3)cc2)CC1` [Example 1-21, 4-[[8-[4-(4-cyanophenyl)-4-hydroxy-1-piperidyl]-[1,2,4]triazolo[1,5-a]pyridin-2-yl]amino]-N-methyl-N-(1-methyl-4-piperidyl)benzamide], the Ki turned out to be 6.49 nM. Consider `CN1CCC(N(C)C(=O)c2ccc(Nc3nc4c(N5CCC(OCC#N)CC5)cccn4n3)cc2)CC1` [Example 1-23, 4-[[8-[4-(cyanomethoxy)-1-piperidyl]-[1,2,4]triazolo[1,5-a]pyridin-2-yl]amino]-N-methyl-N-(1-methyl-4-piperidyl)benzamide], for which the Ki came to 2.5 nM. Take `CN1CCC(N(C)C(=O)c2ccc(Nc3nc4c(N5CCC6(CC5)CNC(=O)O6)cccn4n3)cc2)CC1` [Example 1-28, N-methyl-N-(1-methyl-4-piperidyl)-4-[[8-(2-oxo-1-oxa-3,8-diazaspiro[4.5]decan-8-yl)-[1,2,4]triazolo[1,5-a]pyridin-2-yl]amino]benzamide]: the Ki is 8.21 nM. Same read-out and setting: in the case of `CN1CCC(N(C)C(=O)c2ccc(Nc3nc4c(N5CCN6C(=O)NCCC6C5)cccn4n3)cc2)CC1` (stereo not shown) [Example 1-31, N-methyl-N-(1-methyl-4-piperidyl)-4-[[8-(6-oxo-3,4,7,8,9,9a-hexahydro-1H-pyrazino[1,2-c]pyrimidin-2-yl)-[1,2,4]triazolo[1,5-a]pyridin-2-yl]amino]benzamide] it was 52.4 nM; in that of `CN1CCC(N(C)C(=O)c2ccc(Nc3nc4c(N5CCN6C(=O)COC[C@@H]6C5)cccn4n3)cc2)CC1` [Example 1-32, 4-[[8-[(9aS)-4-oxo-6,7,9,9a-tetrahydro-1H-pyrazino[2,1-c][1,4]oxazin-8-yl]-[1,2,4]triazolo[1,5-a]pyridin-2-yl]amino]-N-methyl-N-(1-methyl-4-piperidyl)benzamide], 28.8 nM. On the same count and under the same terms, next, `CN1CCC(N(C)C(=O)c2ccc(Nc3nc4c(N5CCN6C(=O)COC[C@H]6C5)cccn4n3)cc2)CC1` [Example 1-33, 4-[[8-[(9aR)-4-oxo-6,7,9,9a-tetrahydro-1H-pyrazino[2,1-c][1,4]oxazin-8-yl]-[1,2,4]triazolo[1,5-a]pyridin-2-yl]amino]-N-methyl-N-(1-methyl-4-piperidyl)benzamide]: 38.7 nM; `CN1CCC(N(C)C(=O)c2ccc(Nc3nc4c(N5CCC(O)(c6ccccc6Cl)CC5)cccn4n3)cc2)CC1` [Example 1-35, 4-[[8-[4-(2-chlorophenyl)-4-hydroxy-1-piperidyl]-[1,2,4]triazolo[1,5-a]pyridin-2-yl]amino]-N-methyl-N-(1-methyl-4-piperidyl)benzamide]: 27.7 nM; `Cc1ccc(C2(O)CCN(c3cccn4nc(Nc5ccc(C(=O)N(C)C6CCN(C)CC6)cc5)nc34)CC2)cc1` [Example 1-39, 4-[[8-[4-hydroxy-4-(p-tolyl)-1-piperidyl]-[1,2,4]triazolo[1,5-a]pyridin-2-yl]amino]-N-methyl-N-(1-methyl-4-piperidyl)benzamide]: 3.52 nM.

Regarding `COc1ccc(C2(O)CCN(c3cccn4nc(Nc5ccc(C(=O)N(C)C6CCN(C)CC6)cc5)nc34)CC2)cc1` [Example 1-40, 4-[[8-[4-hydroxy-4-(4-methoxyphenyl)-1-piperidyl]-[1,2,4]triazolo[1,5-a]pyridin-2-yl]amino]-N-methyl-N-(1-methyl-4-piperidyl)benzamide], the Ki is 4.58 nM.

With `CN1CCC(N(C)C(=O)c2ccc(Nc3nc4c(N5CCC(C(=O)N6CC(C)(C)C6)CC5)cccn4n3)cc2)CC1` [Example 1-42, 4-{8-[4-(3,3-Dimethyl-azetidine-1-carbonyl)-piperidin-1-yl]-1,8a-dihydro [1,2,4]triazolo[1,5a]pyridine-2-ylamino}-N-methyl-N-(1-methyl-piperidin-4-yl)-benzamide], the Ki was determined as 1090 nM. Still for that read-out and setting: in the case of `CN1CCC(N(C)C(=O)c2ccc(Nc3nc4c(N5CCC(C#N)(c6ccccc6)CC5)cccn4n3)cc2)CC1` [Example 1-45, 4-[[8-(4-cyano-4-phenyl-1-piperidyl)-[1,2,4]triazolo[1,5-a]pyridin-2-yl]amino]-N-methyl-N-(1-methyl-4-piperidyl)benzamide] it was 20.4 nM; in that of `CN1CCC(N(C)C(=O)c2ccc(Nc3nc4c(N5CCc6ccccc6C5)cccn4n3)cc2)CC1` [Example 1-46, 4-[[8-(3,4-dihydro-1H-isoquinolin-2-yl)-[1,2,4]triazolo[1,5-a]pyridin-2-yl]amino]-N-methyl-N-(1-methyl-4-piperidyl)benzamide], 10.1 nM. `O=C(c1ccc(Nc2nc3c(N4CCC(O)(c5ccc(Cl)cc5)CC4)cccn3n2)cc1)N1CCN(c2ccccn2)CC1` [Example 1-112, [4-[[8-[4-(4-chlorophenyl)-4-hydroxy-1-piperidyl]-[1,2,4]triazolo[1,5-a]pyridin-2-yl]amino]phenyl]-[4-(2-pyridyl)piperazin-1-yl]methanone]: the Ki came out at 3.8 nM.

Take `CN1CCC(N(C)C(=O)c2ccc(Nc3nc4c(N5CCC(CC#N)(C6CCCC6)CC5)cccn4n3)cc2)CC1` [Example 1-257, 4-([8-[4-(cyanomethyl)-4-cyclopentylpiperidin-1-yl]-[1,2,4]triazolo[1,5-a]pyridin-2-yl]amino)-N-methyl-N-(1-methylpiperidin-4-yl)benzamide]: the Ki worked out at 2.34 nM. The same measure, in the same setting: in the case of `CN1CCC(N(C)C(=O)c2ccc(Nc3nc4c(N5CCC(C)(C(=O)NCc6ccccc6)CC5)cccn4n3)cc2)CC1` [Example 1-259, N-benzyl-4-methyl-1-[2-[4-[methyl-(1-methyl-4-piperidyl)carbamoyl]anilino]-[1,2,4]triazolo[1,5-a]pyridin-8-yl]piperidine-4-carboxamide] it was 10.7 nM; in that of `CC(=O)NC1(C)CCN(c2cccn3nc(Nc4ccc(C(=O)N(C)C5CCN(C)CC5)cc4)nc23)CC1` [Example 1-260, 4-[[8-(4-acetamido-4-methylpiperidin-1-yl)-[1,2,4]-triazolo[1,5-a]pyridin-2-yl]amino]-N-methyl-N-(1-methylpiperidin-4-yl)benzamide], 16.3 nM; in that of `CN1CCC(N(C)C(=O)c2ccc(Nc3nc4c(N5CCC(C)(N(C)S(=O)(=O)c6ccccc6)CC5)cccn4n3)cc2)CC1` [Example 1-261], 3.56 nM. In the case of `CN1CCC(N(C)C(=O)c2ccc(Nc3nc4c(N5CCC(CO)(CNCC(F)(F)F)CC5)cccn4n3)cc2)CC1` [Example 1-266, 4-([8-[4-(hydroxymethyl)-4-[[(2,2,2-trifluoroethyl)amino]methyl]piperidin-1-yl]-[1,2,4]triazolo[1,5-a]pyridin-2-yl]amino)-N-methyl-N-(1-methylpiperidin-4-yl)benzamide], the Ki turned out to be 2.54 nM. Regarding `CN1CCC(N(C)C(=O)c2ccc(Nc3nc4c(N5CCC(C(=O)O)(c6ccc(Cl)cc6)CC5)cccn4n3)cc2)CC1` [Example 1-269, 4-(4-chlorophenyl)-1-[2-([4-[methyl(1-methylpiperidin-4-yl)carbamoyl]phenyl]amino)-[1,2,4]-triazolo[1,5-a]pyridin-8-yl]piperidine-4-carboxylic acid], the Ki came out at 13.2 nM. For the compound `CN1CCC(N(C)C(=O)c2ccc(Nc3nc4c(N5CC6CC5CN6Cc5ccccc5)cccn4n3)cc2)CC1` (stereo not shown) [Example 1-293, 4-[[8-(5-benzyl-2,5-diazabicyclo[2.2.1]heptan-2-yl)-[1,2,4]triazolo[1,5-a]pyridin-2-yl]amino]-N-methyl-N-(1-methyl-4-piperidyl)benzamide], the Ki was found to be 110 nM. Regarding `CN1CCC(N(C)C(=O)c2ccc(Nc3nc4c(N5CCC(C)(NC(=O)c6ccccc6)CC5)cccn4n3)cc2)CC1` [Example 1-302, 4-[[8-(4-benzamido-4-methyl-1-piperidyl)-[1,2,4]triazolo[1,5-a]pyridin-2-yl]amino]-N-methyl-N-(1-methyl-4-piperidyl)benzamide], the Ki is 6.37 nM. With `CN1CCC(N(C)C(=O)c2ccc(Nc3nc4c(N5CCC(C)(NS(=O)(=O)c6ccccc6)CC5)cccn4n3)cc2)CC1` [Example 1-303, 4-[[8-[4-(benzenesulfonamido)-4-methyl-1-piperidyl]-[1,2,4]triazolo[1,5-a]pyridin-2-yl]amino]-N-methyl-N-(1-methyl-4-piperidyl)benzamide], the Ki was found to be 4.98 nM. On the same count and under the same terms, in the case of `NCC1(c2ccccc2)CCN(c2cccn3nc(NC(=O)C4CC4)nc23)CC1` [Example 3-1, N-[8-[4-(aminomethyl)-4-phenyl-1-piperidyl]-[1,2,4]triazolo[1,5-a]pyridin-2-yl]cyclopropane carboxamide; hydrochloride] it was 145 nM.

In another test the test system is JAK1-dependent STAT6 phosphorylation downstream of IL-13 stimulation in TF-1 human erythroleukemia cells. Put plainly: cells. To be noted: TF-1, read-out: IL-13-pSTAT6 IC50.
Description: Inhibitor potency (EC50) was determined in cell-based assays designed to measure JAK1 dependent STAT phosphorylation.
Prior to use in the assays, TF-1 cells were starved of GM-CSF overnight in OptiMEM medium (Life Technologies, Grand Island, N.Y.) supplemented with 0.5% charcoal/dextran stripped fetal bovine serum (FBS), 0.1 mM non-essential amino acids (NEAA), and 1 mM sodium pyruvate. The assays were run in 384-well plates in serum-free OptiMEM medium using 300,000 cells per well. In a second assay approach, BEAS-2B human bronchial epithelial cells obtained from ATCC were plated at 100,000 cells per well of a 96-well plate one day prior to the experiment. The BEAS-2B assay was run in complete growth medium (bronchial epithelial basal medium plus bulletkit; Lonza; Basel, Switzerland).
Test compounds were serially diluted 1:2 in DMSO and then diluted 1:50 in medium just before use. Diluted compounds were added to the cells, for a final DMSO concentration of 0.2%, and incubated for 30 min (for the TF-1 assay) or 1 hr (for the BEAS-2B assay) at 37° C. Then, cells were stimulated with human recombinant cytokine at their respective EC90 concentrations, as previously determined for each individual lot. […] The resultant samples were frozen in the plates at −80° C. Compound mediated inhibition of STAT6 phosphorylation was measured in the cell lysates using MesoScale Discovery (MSD) technology (Gaithersburg, Md.).
One may read the IC50 as the concentration that gives 50% inhibition. Consider `COC1(c2ccccc2)CCN(c2cccn3nc(Nc4ccc(C(=O)N(C)C5CCN(C)CC5)cc4)nc23)CC1` [Example 1-5, 4-[[8-(4-methoxy-4-phenyl-1-piperidyl)-[1,2,4]triazolo[1,5-a]pyridin-2-yl]amino]-N-methyl-N-(1-methyl-4-piperidyl)benzamide; hydrochloride], for which the IC50 is 767 nM. For the compound `COC1CCN(c2cccn3nc(Nc4ccc(C(=O)N(C)C5CCN(C)CC5)cc4)nc23)CC1` [Example 1-8, 4-[[8-(4-methoxy-1-piperidyl)-[1,2,4]triazolo[1,5-a]pyridin-2-yl]amino]-N-methyl-N-(1-methyl-4-piperidyl)benzamide], the IC50 amounted to 756 nM. In the case of `CN1CCC(N(C)C(=O)c2ccc(Nc3nc4c(N5CCC(O)(c6ccc(C#N)cc6)CC5)cccn4n3)cc2)CC1` [Example 1-21, 4-[[8-[4-(4-cyanophenyl)-4-hydroxy-1-piperidyl]-[1,2,4]triazolo[1,5-a]pyridin-2-yl]amino]-N-methyl-N-(1-methyl-4-piperidyl)benzamide], the IC50 worked out at 333 nM.

With `CN1CCC(N(C)C(=O)c2ccc(Nc3nc4c(N5CCC(OCC#N)CC5)cccn4n3)cc2)CC1` [Example 1-23, 4-[[8-[4-(cyanomethoxy)-1-piperidyl]-[1,2,4]triazolo[1,5-a]pyridin-2-yl]amino]-N-methyl-N-(1-methyl-4-piperidyl)benzamide], the IC50 came out at 73.7 nM.
